From publication PMC7339578, “Multiple circulating alkaloids and saponins from intravenous Kang-Ai injection inhibit human cytochrome P450 and UDP-glucuronosyltransferase isozymes: potential drug–drug interactions” (Chinese Medicine, 2020)
Values joined by “and” are separate entries in the source; they are usually repeats but may differ in a detail not shown here. Identical values can stand only once. Like-named read-outs stand apart in the source and are kept apart here.

Tests used:
[1] = Plasma pharmacokinetics in rats after a 30-min intravenous infusion of Kang-Ai injection; type: in vivo, Sprague–Dawley rats; conditions: male, Sprague-Dawley, 30-min iv infusion of Kang-Ai injection 6 mL/kg; for Vd / clearance: plasma, rat, Table 1 unit; for clearance: read-out: CLtot, p (converted); for Cmax / half-life: rat plasma; for Cmax: read-out: Cmax; for half-life: read-out: t1/2 (converted)
In short: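 Fasted male Sprague–Dawley rats (250 ± 20 g) got a single 30-min tail-vein infusion of Kang-Ai injection at 6 mL/kg. Jugular blood was sampled from 5 min to 12 h for plasma. Parameters came from non-compartmental analysis (trapezoidal AUC), n = 3.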

[2] = Urinary (renal) excretion in rats after a 30-min infusion of Kang-Ai injection; type: in vivo, Sprague–Dawley rats; conditions: Kang-Ai injection 6 mL/kg iv; for CL renal: male, Sprague-Dawley, urine and plasma, rat, read-out: CLR (renal excretory clearance) (converted); for fe-U,0–12h (fraction of dose excreted into urine): rat urine 0–12 h
In short: (§1)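 Urine collected in metabolic cages at 0–4, 4–8, 8–12 h and bile at 0–3, 3–6, 6–9, 9–12 h after infusion start, weighed and frozen at −80 °C. Non-compartmental analysis; CLR and CLB as cumulative urinary or biliary amount divided by plasma AUC0-∞, fe-U and fe-B as cumulative amount/dose; mean ± SD (n = 3).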

[3] = Biliary (hepatobiliary) excretion in rats after a 30-min infusion of Kang-Ai injection; type: in vivo, Sprague–Dawley rats; conditions: Kang-Ai injection 6 mL/kg iv
In short: as §1

CYP2A6 = molecular target: T1, CYP2A6 (Homo sapiens, UniProt P11509); assay: Inhibition of recombinant CYP2A6 (probe coumarin); type: in vitro ADME; conditions: recombinant isozyme; mean ± SD of triplicate; unit not given (IC50 classes in μM); read-out: IC50 towards CYP2A6
T1 sequence (P11509 1-494): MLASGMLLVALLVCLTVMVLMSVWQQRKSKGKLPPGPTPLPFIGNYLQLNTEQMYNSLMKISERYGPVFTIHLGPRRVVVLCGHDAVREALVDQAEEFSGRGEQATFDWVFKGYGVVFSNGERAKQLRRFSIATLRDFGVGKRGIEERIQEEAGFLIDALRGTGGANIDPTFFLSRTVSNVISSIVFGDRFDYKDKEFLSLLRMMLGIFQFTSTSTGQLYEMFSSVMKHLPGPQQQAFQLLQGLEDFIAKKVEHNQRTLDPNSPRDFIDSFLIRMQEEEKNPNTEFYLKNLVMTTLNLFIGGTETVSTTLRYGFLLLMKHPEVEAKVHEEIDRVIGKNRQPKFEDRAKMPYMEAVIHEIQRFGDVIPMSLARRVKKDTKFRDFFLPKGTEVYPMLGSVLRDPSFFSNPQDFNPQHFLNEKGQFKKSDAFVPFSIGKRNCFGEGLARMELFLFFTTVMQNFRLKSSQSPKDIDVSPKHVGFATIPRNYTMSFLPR
Experimental: (§2) In this study, phenacetin (100 μM), coumarin (100 μM), bupropion (100 μM), paclitaxel (60 μM), tolbutamide (200 μM), mephenytoin (100 μM), chlorzoxazone (200 μM) and nifedipine (40 μM) have been used as the probe substrates for CYP1A2, 2A6, 2B6, 2C8, 2C9, 2C19, 2E1 and 3A4, respectively.

CYP2C9 = CYP2C9 (Homo sapiens, UniProt P11712); assay: Inhibition of recombinant CYP2C9 (probe tolbutamide); type: in vitro ADME; conditions: for IC50: read-out: IC50 towards CYP2C9
CYP2C9, sequence (P11712 whole entry): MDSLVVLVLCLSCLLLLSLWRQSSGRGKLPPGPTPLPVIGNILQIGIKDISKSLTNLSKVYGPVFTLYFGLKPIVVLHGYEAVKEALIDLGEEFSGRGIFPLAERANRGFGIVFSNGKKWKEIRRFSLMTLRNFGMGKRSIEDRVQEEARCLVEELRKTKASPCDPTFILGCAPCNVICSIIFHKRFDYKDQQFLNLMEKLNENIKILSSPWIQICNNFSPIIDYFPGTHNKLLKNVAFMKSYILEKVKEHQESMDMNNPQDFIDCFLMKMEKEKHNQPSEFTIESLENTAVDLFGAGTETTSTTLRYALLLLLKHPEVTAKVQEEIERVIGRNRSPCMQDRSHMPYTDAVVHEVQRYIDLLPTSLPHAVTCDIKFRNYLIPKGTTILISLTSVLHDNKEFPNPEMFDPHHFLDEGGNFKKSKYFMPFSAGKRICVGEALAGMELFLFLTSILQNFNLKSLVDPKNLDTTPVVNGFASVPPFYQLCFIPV
Experimental: as §2

CYP3A4 = CYP3A4 (Homo sapiens, UniProt P08684); assay: Inhibition of recombinant CYP3A4 (probe nifedipine); type: in vitro ADME; conditions: for IC50: read-out: IC50 towards CYP3A4
CYP3A4, sequence (P08684 whole entry): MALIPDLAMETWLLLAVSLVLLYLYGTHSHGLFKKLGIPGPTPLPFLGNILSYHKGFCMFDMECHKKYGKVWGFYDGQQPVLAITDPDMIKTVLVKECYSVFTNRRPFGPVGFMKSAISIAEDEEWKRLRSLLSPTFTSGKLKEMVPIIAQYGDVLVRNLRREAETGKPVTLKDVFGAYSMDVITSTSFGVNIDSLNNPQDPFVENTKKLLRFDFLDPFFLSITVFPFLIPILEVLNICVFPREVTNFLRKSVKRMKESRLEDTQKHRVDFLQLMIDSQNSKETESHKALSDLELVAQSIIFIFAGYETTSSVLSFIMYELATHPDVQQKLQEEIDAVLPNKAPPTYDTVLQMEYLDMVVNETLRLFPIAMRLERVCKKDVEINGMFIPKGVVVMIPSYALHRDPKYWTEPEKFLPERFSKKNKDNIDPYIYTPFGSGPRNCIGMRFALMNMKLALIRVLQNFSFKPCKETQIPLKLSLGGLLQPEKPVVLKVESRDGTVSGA
Experimental: as §2

[4] = Stability tests of analytes in rat plasma QC samples; type: in vitro ADME; conditions: rat plasma
Experimental: […] The dilution integrity was investigated by analyzing six replicate samples with each analyte, and each analyte were diluted 10-fold with blank rat matrix. Furthermore, the diluted samples were analyzed using freshly prepared calibration curve to calculate RE and RSD, which should be no more than ± 15% as criterion.

[5] = recombinant isozyme, mean ± SD of triplicate, unit not given (IC50 classes in μM)

CC(C)=CCC[C@](C)(O[C@@H]1O[C@H](CO)[C@@H](O)[C@H](O)[C@H]1O)[C@H]1CC[C@]2(C)[C@@H]1[C@H](O)C[C@@H]1[C@@]3(C)CC[C@H](O[C@@H]4O[C@H](CO)[C@@H](O)[C@H](O)[C@H]4O[C@@H]4O[C@H](CO)[C@@H](O)[C@H](O)[C@H]4O)C(C)(C)[C@@H]3CC[C@]12C [Compound D2, Ginsenoside Rd]
Vd [1]: 0.0357 ± 0.0114 L/kg | clearance [1]: 0.0972 mL/min | Cmax [1]: 0.766 ± 0.0579 µM | half-life [1]: 5.84 ± 3.13 h | CL renal [2]: 0.0185 mL/min | fe-U,0–12h (fraction of dose excreted into urine) [2]: 19.00 ± 5.33% | fraction of dose excreted unchanged via renal plus hepatobiliary excretion (sum of fe-U and fe-B) ([2]; rat urine + bile, 0–12 h): about 25% | fe-B,0–12h (fraction of dose excreted into bile) ([3]; rat bile 0–12 h): 5.55% and 5.55 ± 1.02% | IC50 (CYP2A6): > 100 µM | IC50 (CYP2C9; [5]): > 100 µM | inhibition type (smallest AIC and SC) (CYP3A4; CYP3A4): Noncompetitive inhibition | Ki (CYP3A4; CYP3A4, competitive model): 8.7 ± 2.3 µM | Ki (CYP3A4; CYP3A4, mixed-type model): 44.2 ± 16.2 µM | α (CYP3A4; CYP3A4, mixed-type model): 0.6 ± 0.3 | Ki (CYP3A4; CYP3A4, noncompetitive model): 32.8 ± 2.2 µM | Cmax/Ki ([I]/Ki) (CYP3A4; CYP3A4, selected model, rat plasma Cmax): 0.02 | IC50 (CYP3A4; nifedipine 40 μM): 41 µM | IC50 (CYP3A4; [5]): 41 ± 25.8 µM | At -80 °C for 48 h, Mean±SD ([4]; nominal conc. 20 nM): 20.86 ± 2.70 nM | At -80 °C for 48 h, RE ([4]; nominal conc. 20 nM): 13.40% | Extracted samples at 8 °C for 18 h, Mean±SD ([4]; nominal conc. 20 nM): 21.52 ± 1.04 nM | Extracted samples at 8 °C for 18 h, RE ([4]; nominal conc. 20 nM): 11.29% | Short-term stability at room temperature for 6 h, Mean±SD ([4]; nominal conc. 20 nM): 20.41 ± 1.88 nM | Short-term stability at room temperature for 6 h, RE ([4]; nominal conc. 20 nM): -8.78% | Three freeze-thaw cycles (-80 °C ↔ 23 °C), Mean±SD ([4]; nominal conc. 20 nM): 21.38 ± 0.85 nM | Three freeze-thaw cycles (-80 °C ↔ 23 °C), RE ([4]; nominal conc. 20 nM): 11.74% | At -80 °C for 48 h, Mean±SD ([4]; nominal conc. 100 nM): 94.76 ± 3.45 nM | At -80 °C for 48 h, RE ([4]; nominal conc. 100 nM): -9.18% | Extracted samples at 8 °C for 18 h, Mean±SD ([4]; nominal conc. 100 nM): 93.92 ± 4.07 nM | Extracted samples at 8 °C for 18 h, RE ([4]; nominal conc. 100 nM): -9.39% | Short-term stability at room temperature for 6 h, Mean±SD ([4]; nominal conc. 100 nM): 96.61 ± 5.06 nM | Short-term stability at room temperature for 6 h, RE ([4]; nominal conc. 100 nM): -8.93% | Three freeze-thaw cycles (-80 °C ↔ 23 °C), Mean±SD ([4]; nominal conc. 100 nM): 101.66 ± 11.99 nM | Three freeze-thaw cycles (-80 °C ↔ 23 °C), RE ([4]; nominal conc. 100 nM): 13.24% | At -80 °C for 48 h, Mean±SD ([4]; nominal conc. 400 nM): 419.98 ± 19.52 nM | At -80 °C for 48 h, RE ([4]; nominal conc. 400 nM): 10.54% | Extracted samples at 8 °C for 18 h, Mean±SD ([4]; nominal conc. 400 nM): 411.97 ± 35.80 nM | Extracted samples at 8 °C for 18 h, RE ([4]; nominal conc. 400 nM): 9.32% | Short-term stability at room temperature for 6 h, Mean±SD ([4]; nominal conc. 400 nM): 362.78 ± 5.91 nM | Short-term stability at room temperature for 6 h, RE ([4]; nominal conc. 400 nM): -10.80% | Three freeze-thaw cycles (-80 °C ↔ 23 °C), Mean±SD ([4]; nominal conc. 400 nM): 397.28 ± 35.89 nM | Three freeze-thaw cycles (-80 °C ↔ 23 °C), RE ([4]; nominal conc. 400 nM): 9.66%

CC(C)=CCC[C@](C)(O[C@@H]1O[C@H](CO[C@@H]2O[C@H](CO)[C@@H](O)[C@H](O)[C@H]2O)[C@@H](O)[C@H](O)[C@H]1O)[C@H]1CC[C@]2(C)[C@@H]1[C@H](O)C[C@@H]1[C@@]3(C)CC[C@H](O[C@@H]4O[C@H](CO)[C@@H](O)[C@H](O)[C@H]4O[C@@H]4O[C@H](CO)[C@@H](O)[C@H](O)[C@H]4O)C(C)(C)[C@@H]3CC[C@]12C [Compound D5, Ginsenoside Rb1]
clearance [1]: 0.103 mL/min | Vd ([1]; read-out: VSS): 0.047 ± 0.0199 L | Cmax [1]: 0.497 ± 0.0751 µM | half-life [1]: 7.22 ± 7.03 h | CL renal [2]: 0.00633 mL/min | fe-U,0–12h (fraction of dose excreted into urine) [2]: 6.41 ± 1.47% | detection in bile ([3]; rat bile): not detected in bile | IC50 (CYP2A6): > 100 µM | inhibition type (smallest AIC and SC) (CYP2C9; CYP2C9): Noncompetitive inhibition | Ki (CYP2C9; CYP2C9, competitive model): 8.2 ± 1 µM | Ki (CYP2C9; CYP2C9, mixed-type model): 18.8 ± 4.3 µM | α (CYP2C9; CYP2C9, mixed-type model): 0.7 ± 0.3 | Ki (CYP2C9; CYP2C9, noncompetitive model): 16.1 ± 0.9 µM | Cmax/Ki ([I]/Ki) (CYP2C9; CYP2C9, selected model, rat plasma Cmax): 0.03 | IC50 (CYP2C9; [5]): 8.8 ± 3.2 µM | IC50 (CYP2C9; tolbutamide 200 μM): 8.81 µM | IC50 (CYP3A4; [5]): > 100 µM | At -80 °C for 48 h, Mean±SD ([4]; nominal conc. 20 nM): 20.64 ± 1.63 nM | At -80 °C for 48 h, RE ([4]; nominal conc. 20 nM): 8.70% | Extracted samples at 8 °C for 18 h, Mean±SD ([4]; nominal conc. 20 nM): 17.96 ± 0.32 nM | Extracted samples at 8 °C for 18 h, RE ([4]; nominal conc. 20 nM): -11.74% | Short-term stability at room temperature for 6 h, Mean±SD ([4]; nominal conc. 20 nM): 20.30 ± 1.81 nM | Short-term stability at room temperature for 6 h, RE ([4]; nominal conc. 20 nM): 9.00% | Three freeze-thaw cycles (-80 °C ↔ 23 °C), Mean±SD ([4]; nominal conc. 20 nM): 19.99 ± 1.88 nM | Three freeze-thaw cycles (-80 °C ↔ 23 °C), RE ([4]; nominal conc. 20 nM): -10.85% | At -80 °C for 48 h, Mean±SD ([4]; nominal conc. 100 nM): 94.32 ± 8.04 nM | At -80 °C for 48 h, RE ([4]; nominal conc. 100 nM): -13.46% | Extracted samples at 8 °C for 18 h, Mean±SD ([4]; nominal conc. 100 nM): 101.02 ± 12.87 nM | Extracted samples at 8 °C for 18 h, RE ([4]; nominal conc. 100 nM): -13.83% | Short-term stability at room temperature for 6 h, Mean±SD ([4]; nominal conc. 100 nM): 91.65 ± 3.42 nM | Short-term stability at room temperature for 6 h, RE ([4]; nominal conc. 100 nM): -12.30% | Three freeze-thaw cycles (-80 °C ↔ 23 °C), Mean±SD ([4]; nominal conc. 100 nM): 108.29 ± 6.26 nM | Three freeze-thaw cycles (-80 °C ↔ 23 °C), RE ([4]; nominal conc. 100 nM): 12.24% | At -80 °C for 48 h, Mean±SD ([4]; nominal conc. 400 nM): 428.49 ± 29.97 nM | At -80 °C for 48 h, RE ([4]; nominal conc. 400 nM): 12.25% | Extracted samples at 8 °C for 18 h, Mean±SD ([4]; nominal conc. 400 nM): 409.55 ± 29.87 nM | Extracted samples at 8 °C for 18 h, RE ([4]; nominal conc. 400 nM): 9.12% | Short-term stability at room temperature for 6 h, Mean±SD ([4]; nominal conc. 400 nM): 388.96 ± 18.81 nM | Short-term stability at room temperature for 6 h, RE ([4]; nominal conc. 400 nM): -6.00% | Three freeze-thaw cycles (-80 °C ↔ 23 °C), Mean±SD ([4]; nominal conc. 400 nM): 441.95 ± 3.33 nM | Three freeze-thaw cycles (-80 °C ↔ 23 °C), RE ([4]; nominal conc. 400 nM): 11.44%
